For one data set, the system named is MEK. Nature of the data set: Cellular Assay for Measuring MEK Inhibition (inhibition of ERK phosphorylation in C26 cells, Western blot). It is filed as cell-based, murine. To be noted: inhibition of ERK phosphorylation in murine colon 26 (C26) carcinoma cells; determined graphically from dose response curve. In a few lines: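 Read-out is phospho-ERK1/2 by Western blot, normalized against total ERK1/2 after stripping and re-probing. Murine C26 colon carcinoma cells in exponential growth were exposed to a range of compound concentrations at 37° C before lysis.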
In general terms: Immunoblotting shows a protein as a band on a membrane.

Data set [1] concerns carrageenan thermal hyperalgesia response. Nature of the data set: Thermal hyperalgesia from intraplantar carrageenan in rats (Paw Withdrawal Latency). It is filed as in vivo. As to conditions: rat; for % Inhibition (1 hr): DOSE (PO) 10, 1 hour after drug administration; for % Inhibition (2 hr): DOSE (PO) 10, 2 hours after drug administration; for % Inhibition (3 hr): DOSE (PO) 10, 3 hours after drug administration. Here is the method: The analgesic activity of the compounds of the present invention was assessed by a test with rats. […] The rats were placed on a glass plate with illumination from a halogen lamp placed directly under the injected paw. The time (in seconds) from beginning illumination until the hindlimb was withdrawn from the glass was measured and scored as Paw Withdrawal Latency (PWL). Drug substances were given by oral gavage injection 21⁄2 hours after carrageenan injection to the footpad. PWL was measured prior to carrageenan injection, just prior to drug injection, and 1, 2 (and sometimes 3) hours after drug injection. Carrageenan (a polysaccharide extracted from seaweed) causes a sterile inflammation when injected under the skin. Injection into the rat footpad causes little or no spontaneous pain-related behavior but induces hyperalgesia (pain-related behavioral responses of greater intensity than expected) to peripheral thermal or mechanical stimuli. This hyperalgesia is maximal 2 to 3 hours after injection. Treatment of rats with various analgesic drugs reduces hyperalgesia measured in this way and is a conventional test for detection of analgesic activity in rats. […] Inhibition of the carrageenan thermal hyperalgesia response was determined by the difference between reduced PWL prior to drug and subsequent to drug treatment, and was expressed as percent inhibition of the response. […] Inhibition indicates and analgesic effect.

`O=C(NOCC(O)CO)c1cc(Cl)c(F)c(F)c1Nc1ccc(I)cc1Cl` (centres unmarked) [Example 34] gave a melting point of 152 to 154 °C. In the data set with MEK, the IC50 came to 1 nM. For the same compound, in data set [1], the “% Inhibition (1 hr)” value is recorded as 39.6% and the “% Inhibition (2 hr)” value was determined as 61.5%.
For `O=C(NOCC(O)CO)c1cc(Cl)c(F)c(F)c1Nc1ccc(I)cc1F` (centres unmarked) [Example 41, 5-Chloro-N-(2,3-dihydroxy-propoxy)-3,4-difluoro-2-(2-fluoro-4-iodo-phenylamino)-benzamide], in that order: 152 to 155 °C, 0.73 nM, 26.7% and 61.0%.
Compound `O=C(NOC[C@@H](O)CO)c1cc(Cl)c(F)c(F)c1Nc1ccc(I)cc1F` [Example 54] registered a melting point of 157 to 158 °C. In the data set on MEK, this compound displayed a concentration for half-maximal inhibition (IC50) of 1.2 nM. Further, in data set [1], the “% Inhibition (1 hr)” value came to 49%, the “% Inhibition (2 hr)” value worked out at 52.9% and the “% Inhibition (3 hr)” value is on record as 29.6%.
The compound `O=C(NOC[C@H](O)CO)c1ccc(F)c(F)c1Nc1ccc(Br)cc1F` [Example 55, 2-(4-Bromo-2-fluoro-phenylamino)-N-((R)-2,3-dihydroxy-propoxy)-3,4-difluoro-benzamide] yielded a melting point of 52 °C. This compound also returned an IC50 in the data set with MEK of 4.5 nM. Besides, in data set [1], the “% Inhibition (1 hr)” value came out at 36.8%, the “% Inhibition (2 hr)” value is reported as 60% and the “% Inhibition (3 hr)” value is on record as 22%.
In turn, `CC(C)(O)C(O)CONC(=O)c1ccc(F)c(F)c1Nc1ccc(I)cc1F` (centres unmarked) [Example 76, N-(2,3-Dihydroxy-3-methyl-butoxy)-3,4-difluoro-2-(2-fluoro-4-iodo-phenylamino)-benzamide] came in with a melting point of 180 to 183 °C. Further, in the data set with MEK, the IC50 amounted to 6 nM.
For `CNCCONC(=O)c1ccc(F)c(F)c1Nc1ccc(I)cc1C` [Example 78, 3,4-Difluoro-2-(4-iodo-2-methyl-phenylamino)-N-(2-methylamino-ethoxy)-benzamide], in that order: 183 to 185 °C (dec.) and 230 nM.
For `O=C(c1ccc(F)c(F)c1Nc1ccc(I)cc1F)N1CC(O)CO1` (centres unmarked) [Example 83, [3,4-Difluoro-2-(2-fluoro-4-iodo-phenylamino)-phenyl]-(4-hydroxy-isoxazolidin-2-yl)-methanone], in that order: 122 to 124 °C and 41 nM.
For `O=C(NOCC(O)CO)c1ccc(F)c(F)c1Nc1ccccc1F` (centres unmarked) [Example 85, N-(2,3-Dihydroxy-propoxy)-3,4-difluoro-2-(2-fluoro-phenylamino)-benzamide], in that order: 113 to 115 °C and 54 nM.

As usually defined, the melting point is the temperature, or range, at which the solid turns liquid. The term IC50 denotes the concentration at which inhibition is half-maximal.

The values are drawn from patent US6960614B2, “Oxygenated esters of 4-lodo phenylamino benzhydroxamic acids” (Warner-Lambert Company, priority 2000, dated 2005).
